Tested on: 873145-292-R-J1-PDC complex spheroid viability
Assay: Anticancer human tumor 873145-292-R-J1-PDC patient-derived renal clear cell carcinoma cell line growth inhibition [POLQ]
Conditions: for IC50: curve of first compound; for viability, T/C: stronger effect = lower value; active means viability on the fitted dose curve at most 10% of control; inactive means the rest
Summary of the method: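 Three-cell-type spheroids modelling solid tumor plus stroma served as the readout system; POL inhibitors were tested individually and in combination, concentration ranges set by clinical Cmax where known.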

[1] = second compound 0.0316 µM, first compound 0.0316 µM
[2] = second compound 0.0316 µM, first compound 0.1 µM
[3] = second compound 0.0316 µM, first compound 0.316 µM
[4] = second compound 0.0316 µM, first compound 1 µM
[5] = second compound 0.1 µM, first compound 0.0316 µM
[6] = second compound 0.1 µM, first compound 0.1 µM
[7] = second compound 0.1 µM, first compound 0.316 µM
[8] = second compound 0.1 µM, first compound 1 µM
[9] = second compound 0.316 µM, first compound 0.0316 µM
[10] = second compound 0.316 µM, first compound 0.1 µM
[11] = second compound 0.316 µM, first compound 0.316 µM
[12] = second compound 0.316 µM, first compound 1 µM
[13] = second compound 1 µM, first compound 0.0316 µM
[14] = second compound 1 µM, first compound 0.1 µM
[15] = second compound 1 µM, first compound 0.316 µM
[16] = second compound 1 µM, first compound 1 µM
[17] = second compound 3.16 µM, first compound 0.0316 µM
[18] = second compound 3.16 µM, first compound 0.1 µM
[19] = second compound 3.16 µM, first compound 0.316 µM
[20] = second compound 3.16 µM, first compound 1 µM
[21] = second compound 10 µM, first compound 0.0316 µM
[22] = second compound 10 µM, first compound 0.1 µM
[23] = second compound 10 µM, first compound 0.316 µM
[24] = second compound 10 µM, first compound 1 µM
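Further: spheroids exposed to compounds for 7 days before viability readout.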
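Wherever viability, T/C is given: luminescence signal used as surrogate for viable cell content; 100% = DMSO vehicle control viability.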

CNCc1ccc(-c2[nH]c3cc(F)cc4c3c2CCNC4=O)cc1 + Nc1ccc(C#CCN(C(=O)Cc2ncc(C(F)(F)F)cc2C(F)(F)F)c2ccc(F)cc2)nn1
inactive: viability, T/C [1] 99% | viability, T/C [2] 92.8% | viability, T/C [3] 89.1% | viability, T/C [4] 87.7% | viability, T/C (second compound 0.0316 µM, first compound 3.16 µM) 95.5% | viability, T/C (second compound 0.0316 µM, first compound 10 µM) 103% | viability, T/C [5] 107% | viability, T/C [6] 105% | viability, T/C [7] 83.5% | viability, T/C [8] 88.9% | viability, T/C (second compound 0.1 µM, first compound 3.16 µM) 88.3% | viability, T/C (second compound 0.1 µM, first compound 10 µM) 92.8% | viability, T/C [9] 97.3% | viability, T/C [10] 95.8% | viability, T/C [11] 88.6% | viability, T/C [12] 92.4% | viability, T/C (second compound 0.316 µM, first compound 3.16 µM) 91.6% | viability, T/C (second compound 0.316 µM, first compound 10 µM) 89.2% | viability, T/C [13] 102% | viability, T/C [14] 92.9% | viability, T/C [15] 102% | viability, T/C [16] 94.7% | viability, T/C (second compound 1 µM, first compound 3.16 µM) 103% | viability, T/C (second compound 1 µM, first compound 10 µM) 90.4% | viability, T/C [17] 100% | viability, T/C [18] 104% | viability, T/C [19] 108% | viability, T/C [20] 95.4% | viability, T/C (second compound 3.16 µM, first compound 3.16 µM) 97.5% | viability, T/C (second compound 3.16 µM, first compound 10 µM) 100% | viability, T/C [21] 109% | viability, T/C [22] 104% | viability, T/C [23] 103% | viability, T/C [24] 100% | viability, T/C (second compound 10 µM, first compound 3.16 µM) 99.4% | viability, T/C (second compound 10 µM, first compound 10 µM) 105%
> 10 µM: IC50 (second compound 0.0316 µM) | IC50 (second compound 0.1 µM) | IC50 (second compound 0.316 µM) | IC50 (second compound 1 µM) | IC50 (second compound 3.16 µM) | IC50 (second compound 10 µM)

COc1cccc(OCCCN)c1-c1cc(Nc2cnc(C#N)cn2)n[nH]1 + Nc1ccc(C#CCN(C(=O)Cc2ncc(C(F)(F)F)cc2C(F)(F)F)c2ccc(F)cc2)nn1
inactive: viability, T/C (second compound 0.0316 µM, first compound 0.00316 µM) 94% | viability, T/C (second compound 0.0316 µM, first compound 0.01 µM) 94.2% | viability, T/C [1] 76.3% | viability, T/C [2] 66.6% | viability, T/C [3] 74.3% | viability, T/C [4] 73.2% | viability, T/C (second compound 0.1 µM, first compound 0.00316 µM) 91% | viability, T/C (second compound 0.1 µM, first compound 0.01 µM) 98.2% | viability, T/C [5] 74.8% | viability, T/C [6] 71.8% | viability, T/C [7] 65.4% | viability, T/C [8] 71.1% | viability, T/C (second compound 0.316 µM, first compound 0.00316 µM) 95.5% | viability, T/C (second compound 0.316 µM, first compound 0.01 µM) 97% | viability, T/C [9] 67.7% | viability, T/C [10] 66.6% | viability, T/C [11] 79.9% | viability, T/C [12] 77.8% | viability, T/C (second compound 1 µM, first compound 0.00316 µM) 96.3% | viability, T/C (second compound 1 µM, first compound 0.01 µM) 78.4% | viability, T/C [13] 73.8% | viability, T/C [14] 70.8% | viability, T/C [15] 83.5% | viability, T/C [16] 73.3% | viability, T/C (second compound 3.16 µM, first compound 0.00316 µM) 90.3% | viability, T/C (second compound 3.16 µM, first compound 0.01 µM) 88.9% | viability, T/C [17] 68.9% | viability, T/C [18] 67.1% | viability, T/C [19] 65.2% | viability, T/C [20] 83.9% | viability, T/C (second compound 10 µM, first compound 0.00316 µM) 103% | viability, T/C (second compound 10 µM, first compound 0.01 µM) 90.3% | viability, T/C [21] 74.3% | viability, T/C [22] 68.5% | viability, T/C [23] 69.1% | viability, T/C [24] 95.5%
> 1 µM: IC50 (second compound 0.0316 µM) | IC50 (second compound 0.1 µM) | IC50 (second compound 0.316 µM) | IC50 (second compound 1 µM) | IC50 (second compound 3.16 µM) | IC50 (second compound 10 µM)
